Reference: ChEMBL document CHEMBL3272011, “Aminobenzoic acid diuretics. 9. 3,4-Disubstituted 5-acylaminobenzoic acids and related compounds” (1977)
Calls of active or inactive are those of the source. The calls are words filed in the database; no cut-off is given here.

Columns and labels:
Canis familiaris [1] = assay: Diuretic effect in mongrel dog assessed as urinary excretion of water at 1 mg/kg, iv after 3 hrs (reference value: 0.93 +/- 0.35 ml/kg); format: functional
Canis familiaris [2] = assay: Diuretic effect in mongrel dog assessed as urinary excretion of water at 0.25 mg/kg, iv after 3 hrs (reference value: 0.93 +/- 0.35 ml/kg); format: functional, Canis lupus familiaris, Urine
Canis familiaris [3] = assay: Diuretic effect in mongrel dog assessed as urinary excretion of Na+ at 0.25 mg/kg, iv after 3 hrs (reference value: 0.10 +/- 0.02 mequiv/kg); format: functional, Canis lupus familiaris, Urine
Canis familiaris [4] = assay: Diuretic effect in mongrel dog assessed as urinary excretion of K+ at 0.25 mg/kg, iv after 3 hrs (reference value: 0.16 +/- 0.01 mequiv/kg); format: functional, Canis lupus familiaris, Urine
Canis familiaris [5] = assay: Diuretic effect in mongrel dog assessed as urinary excretion of Na+ at 1 mg/kg, iv after 3 hrs (reference value: 0.10 +/- 0.02 mequiv/kg); format: functional, Canis lupus familiaris, Urine
Canis familiaris [6] = assay: Diuretic effect in mongrel dog assessed as urinary excretion of K+ at 1 mg/kg, iv after 3 hrs (reference value: 0.16 +/- 0.01 mequiv/kg); format: functional, Canis lupus familiaris, Urine
Canis familiaris [7] = assay: Diuretic effect in mongrel dog assessed as urinary excretion of Cl- at 0.25 mg/kg, iv after 3 hrs (reference value: 0.08 +/- 0.02 mequiv/kg); format: functional, Canis lupus familiaris, Urine
Canis familiaris [8] = assay: Diuretic effect in mongrel dog assessed as urinary excretion of Cl- at 1 mg/kg, iv after 3 hrs (reference value: 0.08 +/- 0.02 mequiv/kg); format: functional, Canis lupus familiaris, Urine
Canis familiaris [9] = assay: Diuretic effect in mongrel dog assessed as urinary excretion of Cl- at 0.25 mg/kg, po after 3 hrs (reference value: 0.08 +/- 0.02 mequiv/kg); format: functional, Canis lupus familiaris, Urine
Canis familiaris [10] = assay: Diuretic effect in mongrel dog assessed as urinary excretion of Na+ at 0.25 mg/kg, po after 3 hrs (reference value: 0.10 +/- 0.02 mequiv/kg); format: functional, Canis lupus familiaris, Urine
Canis familiaris [11] = assay: Diuretic effect in mongrel dog assessed as urinary excretion of water at 0.25 mg/kg, po after 3 hrs (reference value: 0.93 +/- 0.35 ml/kg); format: functional, Canis lupus familiaris, Urine
Canis familiaris [12] = assay: Diuretic effect in mongrel dog assessed as urinary excretion of K+ at 0.25 mg/kg, po after 3 hrs (reference value: 0.16 +/- 0.01 mequiv/kg); format: functional, Canis lupus familiaris, Urine
Canis familiaris [13] = assay: Diuretic effect in mongrel dog assessed as urinary excretion of Cl- at 1 mg/kg, po after 3 hrs (reference value: 0.08 +/- 0.02 mequiv/kg)
Canis familiaris [14] = assay: Diuretic effect in mongrel dog assessed as urinary excretion of K+ at 1 mg/kg, po after 3 hrs (reference value: 0.16 +/- 0.01 mequiv/kg); format: functional, Canis lupus familiaris, Urine
Canis familiaris [15] = assay: Diuretic effect in mongrel dog assessed as urinary excretion of Cl- at 1 mg/kg, po after 3 hrs (reference value: 0.08 +/- 0.02 mequiv/kg); format: functional, Canis lupus familiaris, Urine
Canis familiaris [16] = assay: Diuretic effect in mongrel dog assessed as urinary excretion of water at 1 mg/kg, po after 3 hrs (reference value: 0.93 +/- 0.35 ml/kg); format: functional, Canis lupus familiaris, Urine
Canis familiaris [17] = assay: Diuretic effect in mongrel dog assessed as urinary excretion of Na+ at 1 mg/kg, po after 3 hrs (reference value: 0.10 +/- 0.02 mequiv/kg); format: functional, Canis lupus familiaris, Urine
Canis familiaris [18] = assay: Diuretic effect in mongrel dog assessed as urinary excretion of Na+ at 10 mg/kg, iv after 3 hrs (reference value: 0.10 +/- 0.02 mequiv/kg); format: functional, Canis lupus familiaris, Urine
Canis familiaris [19] = assay: Diuretic effect in mongrel dog assessed as urinary excretion of K+ at 10 mg/kg, iv after 3 hrs (reference value: 0.16 +/- 0.01 mequiv/kg); format: functional, Canis lupus familiaris, Urine
Canis familiaris [20] = assay: Diuretic effect in mongrel dog assessed as urinary excretion of water at 10 mg/kg, iv after 3 hrs (reference value: 0.93 +/- 0.35 ml/kg); format: functional, Canis lupus familiaris, Urine
Canis familiaris [21] = assay: Diuretic effect in mongrel dog assessed as urinary excretion of Cl- at 10 mg/kg, iv after 3 hrs (reference value: 0.08 +/- 0.02 mequiv/kg); format: functional, Canis lupus familiaris, Urine
Canis familiaris [22] = assay: Diuretic effect in mongrel dog assessed as urinary excretion of water at 0.1 mg/kg, iv after 3 hrs (reference value: 0.93 +/- 0.35 ml/kg); format: functional, Canis lupus familiaris, Urine
Canis familiaris [23] = assay: Diuretic effect in mongrel dog assessed as urinary excretion of Cl- at 0.1 mg/kg, iv after 3 hrs (reference value: 0.08 +/- 0.02 mequiv/kg); format: functional, Canis lupus familiaris, Urine
Canis familiaris [24] = assay: Diuretic effect in mongrel dog assessed as urinary excretion of Na+ at 0.1 mg/kg, iv after 3 hrs (reference value: 0.10 +/- 0.02 mequiv/kg); format: functional, Canis lupus familiaris, Urine
Canis familiaris [25] = assay: Diuretic effect in mongrel dog assessed as urinary excretion of K+ at 0.1 mg/kg, iv after 3 hrs (reference value: 0.16 +/- 0.01 mequiv/kg); format: functional, Canis lupus familiaris, Urine

Row | Compound | Activity (Canis familiaris [1]; Canis lupus familiaris, Urine) | Activity (Canis familiaris [5]) [milliequivalent/kg] | Activity (Canis familiaris [6]) [milliequivalent/kg] | Activity (Canis familiaris [1]) [mL/kg] | Activity (Canis familiaris [8]) [milliequivalent/kg] | also measured
1 | O=CNc1cc(C(=O)O)cc(SCc2ccccc2)c1Oc1ccccc1 | inactive | – | – | – | – | –
2 | O=CNc1cc(C(=O)O)cc(NCc2ccccc2)c1Oc1ccccc1 | – | 1.3 | 0.26 | 8 | 1.3 | Activity (Canis familiaris [2]): 9 mL/kg; Activity (Canis familiaris [3]): 1.1 milliequivalent/kg; Activity (Canis familiaris [4]): 0.23 milliequivalent/kg; Activity (Canis familiaris [7]): 1.5 milliequivalent/kg
3 | CCN(C=O)c1cc(C(=O)O)cc(OCc2ccccc2)c1C(=O)c1ccccc1 | inactive | – | – | – | – | Activity (Canis familiaris [5]; Canis lupus familiaris, Urine): inactive; Activity (Canis familiaris [6]; Canis lupus familiaris, Urine): inactive; Activity (Canis familiaris [8]; Canis lupus familiaris, Urine): inactive
4 | CNc1cc(C(=O)O)cc(OCc2ccccc2)c1C(=O)c1ccccc1 | inactive | – | – | – | – | Activity (Canis familiaris [5]; Canis lupus familiaris, Urine): inactive; Activity (Canis familiaris [6]; Canis lupus familiaris, Urine): inactive; Activity (Canis familiaris [8]; Canis lupus familiaris, Urine): inactive
5 | CC(=O)Nc1cc(C(=O)O)cc(OCc2ccccc2)c1-c1ccccc1 | – | 1 | 0.22 | 8 | 1.1 | –
6 | CN(C=O)c1cc(C(=O)O)cc(OCc2ccccc2)c1C(=O)c1ccccc1 | Active | – | – | – | – | Activity (Canis familiaris [5]; Canis lupus familiaris, Urine): Active; Activity (Canis familiaris [6]; Canis lupus familiaris, Urine): Active; Activity (Canis familiaris [8]; Canis lupus familiaris, Urine): Active
7 | CCC(=O)Nc1cc(C(=O)O)cc(OCc2ccccc2)c1C(=O)c1ccccc1 | – | 0.6 | 0.2 | 7 | 0.9 | –
8 | O=CNc1cc(C(=O)O)cc(SCc2ccccc2)c1C(=O)c1ccccc1 | – | 2.8 | 0.27 | 26 | – | Activity (Canis familiaris [9]): 0.7 milliequivalent/kg; Activity (Canis familiaris [10]): 0.5 milliequivalent/kg; Activity (Canis familiaris [11]): 10 mL/kg; Activity (Canis familiaris [12]): 0.1 milliequivalent/kg; Activity (Canis familiaris [13]): 3.5 milliequivalent/kg
9 | CCCCOc1cc(C(=O)O)cc(NC(C)=O)c1C(=O)c1ccccc1 | – | – | – | – | – | Activity (Canis familiaris [14]): 0.53 milliequivalent/kg; Activity (Canis familiaris [15]): 2.5 milliequivalent/kg; Activity (Canis familiaris [16]): 18 mL/kg; Activity (Canis familiaris [17]): 2.1 milliequivalent/kg
10 | O=CNc1cc(C(=O)O)cc(SCc2ccsc2)c1Oc1ccccc1 | – | 1.3 | 0.45 | 11 | 1.9 | –
11 | NC(=O)Nc1cc(C(=O)O)cc(NCc2ccccc2)c1Oc1ccccc1 | – | 1.3 | 0.33 | 13 | 1.7 | –
12 | CCCOc1cc(C(=O)O)cc(NC=O)c1C(=O)c1ccccc1 | – | 2 | 0.52 | 10 | 1.2 | –
13 | CNC(=O)Nc1cc(C(=O)O)cc(NCc2ccccc2)c1Oc1ccccc1 | – | 0.7 | 0.2 | 8 | 1.1 | –
14 | C=CCSc1cc(C(=O)O)cc(NC=O)c1C(=O)c1ccccc1 | inactive | – | – | – | – | –
15 | CCCSc1cc(C(=O)O)cc(NC=O)c1C(=O)c1ccccc1 | – | 1 | 0.42 | 8 | 1.2 | –
16 | CN(C)CC(=O)Nc1cc(C(=O)O)cc(OCc2ccccc2)c1C(=O)c1ccccc1 | – | – | – | – | – | Activity (Canis familiaris [16]; Canis lupus familiaris, Urine): inactive

Row | Compound | Activity (Canis familiaris [1]; Canis lupus familiaris, Urine) | Activity (Canis familiaris [5]) [milliequivalent/kg] | Activity (Canis familiaris [6]) [milliequivalent/kg] | Activity (Canis familiaris [1]) [mL/kg] | Activity (Canis familiaris [8]) [milliequivalent/kg] | also measured
17 | O=CNc1cc(C(=O)O)cc(NCc2ccccc2)c1-c1ccccc1 | – | 1.6 | 0.43 | 12 | 1.7 | –
18 | CC(=O)Nc1cc(C(=O)O)cc(OCc2ccccc2)c1C(=O)c1ccccc1 | – | 1.3 | 0.45 | 14 | 3 | –
19 | CC(=O)Nc1cc(C(=O)O)cc(NCc2ccccc2)c1Oc1ccccc1 | – | 1.4 | 0.55 | 11 | 2.1 | Activity (Canis familiaris [18]): 2.8 milliequivalent/kg; Activity (Canis familiaris [19]): 0.8 milliequivalent/kg; Activity (Canis familiaris [20]): 27 mL/kg; Activity (Canis familiaris [21]): 3.8 milliequivalent/kg
20 | NS(=O)(=O)c1cc(C(=O)O)cc(OCc2ccccc2)c1C(=O)c1ccccc1 | – | – | – | – | – | Activity (Canis familiaris [22]): 12 mL/kg; Activity (Canis familiaris [9]): 4.4 milliequivalent/kg; Activity (Canis familiaris [10]): 3.6 milliequivalent/kg; Activity (Canis familiaris [11]): 33 mL/kg; Activity (Canis familiaris [23]): 2 milliequivalent/kg; Activity (Canis familiaris [24]): 1 milliequivalent/kg; Activity (Canis familiaris [12]): 0.89 milliequivalent/kg; Activity (Canis familiaris [25]): 0.42 milliequivalent/kg
21 | O=CNc1cc(C(=O)O)cc(SCc2ccccc2)c1-c1ccccc1 | inactive | – | – | – | – | –
22 | O=C(O)c1cc(NC(=O)C(F)(F)F)c(C(=O)c2ccccc2)c(OCc2ccccc2)c1 | – | – | – | – | – | Activity (Canis familiaris [16]; Canis lupus familiaris, Urine): inactive
23 | O=CNc1cc(C(=O)O)cc(OCc2ccsc2)c1C(=O)c1ccccc1 | – | – | – | – | – | Activity (Canis familiaris [14]): 0.64 milliequivalent/kg; Activity (Canis familiaris [2]): 17 mL/kg; Activity (Canis familiaris [3]): 2.2 milliequivalent/kg; Activity (Canis familiaris [15]): 4.1 milliequivalent/kg; Activity (Canis familiaris [4]): 0.49 milliequivalent/kg; Activity (Canis familiaris [16]): 26 mL/kg; Activity (Canis familiaris [7]): 2.8 milliequivalent/kg; Activity (Canis familiaris [17]): 3.1 milliequivalent/kg
24 | CCCCOc1cc(C(=O)O)cc(NC=O)c1C(=O)c1ccccc1 | – | 2.1 | – | 17 | – | Activity (Canis familiaris [22]): 6 mL/kg; Activity (Canis familiaris [24]): 0.5 milliequivalent/kg
25 | O=C(CCl)Nc1cc(C(=O)O)cc(OCc2ccccc2)c1C(=O)c1ccccc1 | inactive | – | – | – | – | –
26 | O=CNc1cc(C(=O)O)cc(OCc2ccccc2)c1-c1ccccc1 | – | 1.3 | 0.39 | 12 | 1.6 | –
27 | CCCNC(=O)Nc1cc(C(=O)O)cc(NCc2ccccc2)c1Oc1ccccc1 | – | 0.4 | 0.12 | 4 | 0.3 | Activity (Canis familiaris [18]): 1.1 milliequivalent/kg; Activity (Canis familiaris [19]): 0.4 milliequivalent/kg; Activity (Canis familiaris [20]): 11 mL/kg; Activity (Canis familiaris [21]): 1.9 milliequivalent/kg
28 | CN(C)c1cc(C(=O)O)cc(OCc2ccccc2)c1C(=O)c1ccccc1 | inactive | – | – | – | – | Activity (Canis familiaris [5]; Canis lupus familiaris, Urine): inactive; Activity (Canis familiaris [6]; Canis lupus familiaris, Urine): inactive; Activity (Canis familiaris [8]; Canis lupus familiaris, Urine): inactive
29 | CCNc1cc(C(=O)O)cc(OCc2ccccc2)c1C(=O)c1ccccc1 | inactive | – | – | – | – | Activity (Canis familiaris [5]; Canis lupus familiaris, Urine): inactive; Activity (Canis familiaris [6]; Canis lupus familiaris, Urine): inactive; Activity (Canis familiaris [8]; Canis lupus familiaris, Urine): inactive
30 | O=C(O)c1cc(NC(=O)c2ccccc2)c(C(=O)c2ccccc2)c(OCc2ccccc2)c1 | inactive | – | – | – | – | –
31 | CC(=O)Nc1cc(C(=O)O)cc(NCc2ccccc2)c1C(=O)c1ccccc1 | – | 0.4 | 0.21 | 6 | 0.4 | Activity (Canis familiaris [18]): 1.7 milliequivalent/kg; Activity (Canis familiaris [19]): 0.58 milliequivalent/kg; Activity (Canis familiaris [20]): 22 mL/kg; Activity (Canis familiaris [21]): 2.2 milliequivalent/kg
32 | CC(C)CCSc1cc(C(=O)O)cc(NC=O)c1C(=O)c1ccccc1 | – | – | – | – | – | Activity (Canis familiaris [14]): 0.39 milliequivalent/kg; Activity (Canis familiaris [15]): 1.9 milliequivalent/kg; Activity (Canis familiaris [16]): 15 mL/kg; Activity (Canis familiaris [17]): 1.6 milliequivalent/kg
